The source of these data is US10647747B2, “Cyclosporin derivatives and uses thereof” (S&T Global Inc., priority 2010, dated 2020).

Read-outs that look alike come from different tables or passages of the source.

By EC50 is commonly meant the concentration giving half of the maximal effect.

Data set [1] in a line: Stability testing: epimerization of cyclosporin derivatives in methanol, monitored by HPLC. In kind it is physicochemical. Particulars: for Epimerization % after 168 hours: Table 11, MeOH at 50° C.-58° C.
In data set [2] the test system is HCV replicon in cell line ET (luc-ubi-neo/ET), Huh7 human hepatoma. The data set is described as follows: HCV subgenomic replicon assay, luciferase end point. Particulars: read-out: Antiviral activity EC50. In kind it is cell-based.
[3] abbreviates: Table 12, HCV replicon luciferase.
Setting [4] is: HCV subgenomic replicon, cell line ET (luc-ubi-neo/ET) Huh7, luciferase end point.

In the case of `C/C=C/C[C@@H](C)[C@@H](O)[C@H]1C(=O)N[C@@H](CC)C(=O)N(C)[C@H](SCCN(C)C)C(=O)N(C)[C@@H](CC(C)C)C(=O)N[C@@H](C(C)C)C(=O)N(C)[C@@H](CC(C)C)C(=O)N[C@@H](C)C(=O)N[C@H](C)C(=O)N(C)[C@@H](CC(C)C)C(=O)N(C)[C@@H](CC(C)C)C(=O)N(C)[C@@H](C(C)C)C(=O)N1C` [drawing 1930], the Epimerization % in data set [1] (Table 7, MeOH at 65° C., 2 hours) was ~12%; in data set [1] (Table 7, MeOH at 65° C., 4 hours), ~19%; in data set [1] (Table 7, MeOH at 65° C., 6 hours), ~23%.
In the case of `C/C=C/C[C@@H](C)[C@@H](O)[C@H]1C(=O)N[C@@H](CC)C(=O)N(C)[C@H](SCCCN(CC)CC)C(=O)N(C)[C@@H](CC(C)(C)O)C(=O)N[C@@H](C(C)C)C(=O)N(C)[C@@H](CC(C)C)C(=O)N[C@@H](C)C(=O)N[C@H](C)C(=O)N(C)[C@@H](CC(C)C)C(=O)N(C)[C@@H](CC(C)C)C(=O)N(C)[C@@H](C(C)C)C(=O)N1C`, the Epimerization % in data set [1] (Table 10, MeOH at 50° C., 29 hours) is 0%; in data set [1] (Table 10, MeOH at 50° C., 77 hours), “Less than 1%”; in data set [1] (Table 10, MeOH at 50° C., 125 hours), ~12%.
Consider `C/C=C/C[C@@H](C)[C@@H](O)[C@H]1C(=O)N[C@@H](CC)C(=O)N(C)[C@H](CSCCN(C)C)C(=O)N(C)[C@@H](CC(C)C)C(=O)N[C@@H](C(C)C)C(=O)N(C)[C@@H](CC(C)C)C(=O)N[C@@H](C)C(=O)N[C@H](C)C(=O)N(C)[C@@H](CC(C)C)C(=O)N(C)[C@@H](CC(C)C)C(=O)N(C)[C@@H](C(C)C)C(=O)N1C` (single isomer, unassigned), for which the “Epimerization % after 168 hours” value in data set [1] was 0%.
As for `C/C=C/C[C@@H](C)[C@@H](O)[C@H]1C(=O)N[C@@H](CC)C(=O)N(C)[C@H](CSCCCN2CCOCC2)C(=O)N(C)[C@@H](CC(C)(C)O)C(=O)N[C@@H](C(C)C)C(=O)N(C)[C@@H](CC(C)C)C(=O)N[C@@H](C)C(=O)N[C@H](C)C(=O)N(C)[C@@H](CC(C)C)C(=O)N(C)[C@@H](CC(C)C)C(=O)N(C)[C@@H](C(C)C)C(=O)N1C`, in data set [1], the “Epimerization % after 168 hours” value is 0%.
On to `CC=CCC(C)C(O)C1C(=O)NC(CC)C(=O)N(C)C(SCCN(CC)CC)C(=O)N(C)C(CC(C)C)C(=O)NC(C(C)C)C(=O)N(C)C(CC(C)C)C(=O)NC(C)C(=O)NC(C)C(=O)N(C)C(CC(C)C)C(=O)N(C)C(CC(C)C)C(=O)N(C)C(C(C)C)C(=O)N1C` [(S)-2-(N-Diethylamino)ethylthio-Sar]-3-cyclosporin], for which the EC50 in data set [2] (setting [3]) was 160 nM.
In the case of `CC=CCC(C)C(O)C1C(=O)NC(CC)C(=O)N(C)C(CSCCN2CCCCC2)C(=O)N(C)C(CC(C)(C)O)C(=O)NC(C(C)C)C(=O)N(C)C(CC(C)C)C(=O)NC(C)C(=O)NC(C)C(=O)N(C)C(CC(C)C)C(=O)N(C)C(CC(C)C)C(=O)N(C)C(C(C)C)C(=O)N1C` (stereo not shown), the EC50 in data set [2] (setting [4]) was determined as 80 nM.
Take `CC=CCC(C)C(O)C1C(=O)NC(CC)C(=O)N(C)C(CSCCCN(CC)C(C)C)C(=O)N(C)C(CC(C)(C)O)C(=O)NC(C(C)C)C(=O)N(C)C(CC(C)C)C(=O)NC(C)C(=O)NC(C)C(=O)N(C)C(CC(C)C)C(=O)N(C)C(CC(C)C)C(=O)N(C)C(C(C)C)C(=O)N1C` (stereo not shown): the EC50 in data set [2] (setting [4]) turned out to be 60 nM.
As for `CC=CCC(C)C(O)C1C(=O)NC(CC)C(=O)N(C)C(CSCCN2CCCC2)C(=O)N(C)C(CC(C)(C)OC)C(=O)NC(C(C)C)C(=O)N(C)C(CC(C)C)C(=O)NC(C)C(=O)NC(C)C(=O)N(C)C(CC(C)C)C(=O)N(C)C(CC(C)C)C(=O)N(C)C(C(C)C)C(=O)N1C` (stereo not shown), in data set [2] (setting [4]), the EC50 was found to be 90 nM.
On to `C/C=C/C[C@@H](C)[C@@H](O)[C@H]1C(=O)N[C@@H](CC)C(=O)N(C)[C@@H](COCCN(CC)CC)C(=O)N(C)[C@@H](CC(C)(C)O)C(=O)N[C@@H](C(C)C)C(=O)N(C)[C@@H](CC(C)C)C(=O)N[C@@H](C)C(=O)N[C@H](C)C(=O)N(C)[C@@H](CC(C)C)C(=O)N(C)[C@@H](CC(C)C)C(=O)N(C)[C@@H](C(C)C)C(=O)N1C`, for which the EC50 in data set [2] (Table 14, HCV replicon luciferase) was found to be 50 nM.
Consider `CC=CCC(C)C(O)C1C(=O)NC(CC)C(=O)N(C)C(CSCCCCN(CC)CC)C(=O)N(C)C(CC(C)(C)O)C(=O)NC(C(C)C)C(=O)N(C)C(CC(C)C)C(=O)NC(C)C(=O)NC(C)C(=O)N(C)C(CC(C)C)C(=O)N(C)C(CC(C)C)C(=O)N(C)C(C(C)C)C(=O)N1C` (stereo not shown), for which the EC50 in data set [2] (Table 16, HCV replicon luciferase) amounted to 70 nM.
With `C/C=C/C[C@@H](C)[C@@H](O)[C@H]1C(=O)N[C@@H](CC)C(=O)N(C)[C@H](COCCCN(C)C)C(=O)N(C)[C@@H](CC(C)(C)O)C(=O)N[C@@H](C(C)C)C(=O)N(C)[C@@H](CC(C)C)C(=O)N[C@@H](C)C(=O)N[C@H](C)C(=O)N(C)[C@@H](CC(C)C)C(=O)N(C)[C@@H](CC(C)C)C(=O)N(C)[C@@H](C(C)C)C(=O)N1C`, the EC50 in data set [2] (setting [4]) was 260 nM.
With `CC=CCC(C)C(O)C1C(=O)NC(CC)C(=O)N(C)C(SCCNCC(C)(C)C)C(=O)N(C)C(CC(C)C)C(=O)NC(C(C)C)C(=O)N(C)C(CC(C)C)C(=O)NC(C)C(=O)NC(C)C(=O)N(C)C(CC(C)C)C(=O)N(C)C(CC(C)C)C(=O)N(C)C(C(C)C)C(=O)N1C` [(R)-2-(N-neo-Pentylamino)ethylthio-Sar]-3-cyclosporin], the EC50 in data set [2] (setting [3]) is 3090 nM.
As for `C/C=C/C[C@@H](C)[C@@H](O)[C@H]1C(=O)N[C@@H](CC)C(=O)N(C)[C@H](CSCCCN(C)C)C(=O)N(C)[C@@H](CC(C)(C)O)C(=O)N[C@@H](C(C)C)C(=O)N(C)[C@@H](CC(C)C)C(=O)N[C@@H](C)C(=O)N[C@H](C)C(=O)N(C)[C@@H](CC(C)C)C(=O)N(C)[C@@H](CC(C)C)C(=O)N(C)[C@@H](C(C)C)C(=O)N1C`, in data set [2] (setting [4]), the EC50 was determined as 110 nM.
As to `C/C=C/C[C@@H](C)[C@@H](O)[C@H]1C(=O)N[C@@H](CC)C(=O)N(C)[C@H](CSCCN(CC)CC)C(=O)N(C)[C@@H](CC(C)(C)O)C(=O)N[C@@H](C(C)C)C(=O)N(C)[C@@H](CC(C)C)C(=O)N[C@@H](C)C(=O)N[C@H](C)C(=O)N(C)[C@@H](CC(C)C)C(=O)N(C)[C@@H](CC(C)C)C(=O)N(C)[C@@H](C(C)C)C(=O)N1C` (single isomer, unassigned), in data set [2] (Hepatitis C virus, Huh-7, Table 14, HCV replicon luciferase), the EC50 worked out at 30 nM.
Turning to `C/C=C/C[C@@H](C)[C@@H](O)[C@H]1C(=O)N[C@@H](CC)C(=O)N(C)[C@H](C)C(=O)N(CC)[C@@H](C(C)C)C(=O)N[C@@H](C(C)C)C(=O)N(C)[C@@H](CC(C)C)C(=O)N[C@@H](C)C(=O)N[C@H](C)C(=O)N(C)[C@@H](CC(C)C)C(=O)N(C)[C@@H](CC(C)C)C(=O)N(C)[C@@H](C(C)C)C(=O)N1C` [[D-N-MeAla]-3-[N-EtVal]-4-cyclosporin, reference compound], the EC50 was found to be 70 nM in data set [2] (Hepatitis C virus, Huh-7, HCV subgenomic replicon, cell line ET (luc-ubi-neo/ET) Huh7, luciferase end point) and 50 nM in data set [2] (Hepatitis C virus, Huh-7, Table 16, HCV replicon luciferase).
For `CC=CCC(C)C(O)C1C(=O)NC(CC)C(=O)N(C)C(COCCN(CC)CC)C(=O)N(C)C(CC(C)(C)O)C(=O)NC(C(C)C)C(=O)N(C)C(CC(C)C)C(=O)NC(C)C(=O)NC(C)C(=O)N(C)C(CC(C)C)C(=O)N(C)C(CC(C)C)C(=O)N(C)C(C(C)C)C(=O)N1C` (stereo not shown), in data set [2] (setting [4]), the EC50 came to 120 nM.
Regarding `C/C=C/C[C@@H](C)[C@@H](O)[C@H]1C(=O)N[C@@H](CC)C(=O)N(C)[C@@H](CSCCN(CC)CC)C(=O)N(C)[C@@H](CC(C)(C)O)C(=O)N[C@@H](C(C)C)C(=O)N(C)[C@@H](CC(C)C)C(=O)N[C@@H](C)C(=O)N[C@H](C)C(=O)N(C)[C@@H](CC(C)C)C(=O)N(C)[C@@H](CC(C)C)C(=O)N(C)[C@@H](C(C)C)C(=O)N1C` (single isomer, unassigned; isomer a), in data set [2] (Table 13, HCV replicon luciferase), the EC50 stood at 2120 nM.
